Assay results taken from patent US20110086759A1, “CHEMICAL COMPOUNDS” (SYNGENTA CROP PROTECTION, INC., priority 2007, published 2011).

What was measured:
Type in all cases: in vivo
[1] = tested on: Echinochloa crus-galli (ECHCG); assay: Pre-emergence biological efficacy, glasshouse pot test; conditions: 312 h, pre-emergence, 1,000 g/ha, evaluated after 13 days (100=total damage; 0=no damage), read-out: Percentage damage ECHCG
Method in brief: (§1)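 Damage rated 0–100 (100 = total kill) 13 days post-spray. Pots of standard soil were sown and sprayed after one day with test compound at 1000 or 250 g/ha in acetone/water (50:50) plus 0.5% Tween 20.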

Solanum nigrum (SOLNI) [2] = assay: as above; conditions: 312 h, pre-emergence, 1,000 g/ha, evaluated after 13 days (100=total damage; 0=no damage), read-out: Percentage damage SOLNI
Method in brief: as §1

[3] = tested on: Ipomea hederaceae (IPOHE); assay: as above; conditions: Ipomoea hederacea, 312 h; pre-emergence, 1,000 g/ha, evaluated after 13 days (100=total damage; 0=no damage); read-out: Percentage damage IPOHE
Method in brief: as §1

[4] = tested on: Alopecurus myosuroides (ALOMY); assay: as above; conditions: 312 h, pre-emergence, 1,000 g/ha, evaluated after 13 days (100=total damage; 0=no damage), read-out: Percentage damage ALOMY
Method in brief: as §1

[5] = tested on: Amaranthus retoflexus (AMARE); assay: as above; conditions: Amaranthus retroflexus, 312 h; pre-emergence, 1,000 g/ha, evaluated after 13 days (100=total damage; 0=no damage); read-out: Percentage damage AMARE
Method in brief: as §1

Setaria faberi (SETFA) [6] = assay: as above; conditions: 312 h, pre-emergence, 1,000 g/ha, evaluated after 13 days (100=total damage; 0=no damage), read-out: Percentage damage SETFA
Method in brief: as §1

[7] = tested on: Echinochloa crus-galli (ECHCG); assay: Post-emergence biological efficacy, glasshouse pot test; conditions: 312 h, post-emergence, 1,000 g/ha, evaluated after 13 days (100=total damage; 0=no damage), read-out: Percentage damage caused to weed species, ECHCG
Method in brief: (§2)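 Pot-grown weeds were sprayed 8 days after sowing with test compound in acetone/water (50:50) with 0.5% Tween 20 at 1000 or 250 g/ha. Glasshouse at 24/16° C day/night, 14 h light, 65% humidity. Damage scored 0-100 (100 = total damage) after 13 days.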

Solanum nigrum (SOLNI) [8] = assay: as above; conditions: 312 h, post-emergence, 1,000 g/ha, evaluated after 13 days (100=total damage; 0=no damage), read-out: Percentage damage caused to weed species, SOLNI
Method in brief: as §2

[9] = tested on: Ipomea hederaceae (IPOHE); assay: as above; conditions: Ipomoea hederacea, 312 h; post-emergence, 1,000 g/ha, evaluated after 13 days (100=total damage; 0=no damage); read-out: Percentage damage caused to weed species, IPOHE
Method in brief: as §2

[10] = tested on: Alopecurus myosuroides (ALOMY); assay: as above; conditions: 312 h, post-emergence, 1,000 g/ha, evaluated after 13 days (100=total damage; 0=no damage), read-out: Percentage damage caused to weed species, ALOMY
Method in brief: as §2

[11] = tested on: Amaranthus retoflexus (AMARE); assay: as above; conditions: Amaranthus retroflexus, 312 h; post-emergence, 1,000 g/ha, evaluated after 13 days (100=total damage; 0=no damage); read-out: Percentage damage caused to weed species, AMARE
Method in brief: as §2

Setaria faberi (SETFA) [12] = assay: as above; conditions: 312 h, post-emergence, 1,000 g/ha, evaluated after 13 days (100=total damage; 0=no damage), read-out: Percentage damage caused to weed species, SETFA
Method in brief: as §2

Compound	pest or weed control at 1000 g/ha [1]	pest or weed control at 1000 g/ha (Solanum nigrum (SOLNI) [2])	pest or weed control at 1000 g/ha [3]	pest or weed control at 1000 g/ha [4]	pest or weed control at 1000 g/ha [5]	pest or weed control at 1000 g/ha (Setaria faberi (SETFA) [6])	pest or weed control at 1000 g/ha [7]	pest or weed control at 1000 g/ha (Solanum nigrum (SOLNI) [8])	pest or weed control at 1000 g/ha [9]	pest or weed control at 1000 g/ha [10]	pest or weed control at 1000 g/ha [11]	pest or weed control at 1000 g/ha (Setaria faberi (SETFA) [12])
COC(=O)c1nc(C2CC2)nc(NCc2ccc(C(C)C)cc2)c1Cl [Compound 4-74, 5-Chloro-2-cyclopropyl-4-(4-isopropylphenyl-methlamino)-6-methoxycarbonyl-pyrimidine]	30%	70%	60%	10%	80%	10%	70%	100%	100%	20%	90%	80%
COC(=O)c1nc(C2CC2)nc(N[C@@H](C)C(=O)OCc2ccccc2)c1Cl [4-272 (S), 5-Chloro-2-cyclopropyl-6-methoxycarbonyl-4-[(1S)-1-(phenylmethoxy-carbonyl)ethylamino]-pyrimidine]	30%	80%	70%	10%	70%	20%	30%	80%	60%	20%	100%	60%
COC(=O)c1nc(C2CC2)nc(NCc2ccc(OC)cc2)c1Cl [Compound 4-80, 5-Chloro-2-cyclopropyl-6-methoxycarbonyl-4-(4-methoxyphenyl-methylamino)-pyrimidine]	50%	90%	90%	40%	90%	60%	60%	100%	100%	30%	100%	90%
COC(=O)c1nc(C2CC2)nc(NCc2c(F)ccc(F)c2F)c1Cl [Compound 4-118, 5-Chloro-2-cyclopropyl-6-methoxycarbonyl-4-(2,3,6-trifluoro-phenylmethyl-amino)pyrimidine]	50%	40%	70%	20%	40%	0%	80%	80%	90%	60%	100%	80%
COC(=O)c1nc(C2CC2)nc(NC(C)CCc2ccccc2)c1Cl (stereo not drawn) [Compound 4-252, 5-Chloro-2-cyclopropyl-6-methoxycarbonyl-4-(3-phenyl-1-methyl-propylamino)-pyrimidine]	0%	0%	0%	0%	20%	0%	0%	60%	60%	10%	100%	30%
